Experimental data: patent US9744220B2, “Compositions and methods for treating inflammatory diseases” (priority 2013, dated 2017)

Legend:
[1] = test system: Trk; test: Pharmacological Trk inhibition of sPDNF-stimulated H9c2 cardiomyocytes; format: cell-based, rat; settings: K252a 200 nM 1 hr pre-incubation, sPDNF 1 μg/ml 3 hr
Method: Pharmacological inhibition: H9c2 cardiomyocytes were stimulated with sPDNF (1 μg/ml, 3 hr) without pretreatment (sPDNF) or after pretreatment with K252a (200 nM, 1 hr) (K252a+sPDNF), and transcripts of MCP-1 (FIG. 9A) and FKN (FIG. 9B) quantified by qPCR. Chemokine gene expression was normalized to HPRT and fold change calculated relative to vehicle-treated cells. Bars represent mean±SD fold change expression of duplicate samples, *P<0.05 and **P<0.01; experiment performed three times, each giving similar results.
First, H9c2 cardiomyocytes were pre-incubated (1 hr) with the Trk antagonist K252a, which blocks Trk signaling by inhibiting Trk autophosphorylation (53), followed by stimulation (3 hr) with sPDNF (1 μg/ml) or vehicle PBS, and quantification of MCP-1 and FKN transcripts by qPCR.
H9c2 cells were pre-treated with 0.1% DMSO vehicle control or 200 nM K252a for 1 h prior to addition of sPDNF (1 μg/ml). Supernatants and cell monolayers were collected for quantification of secreted chemokines and cells were harvested for mRNA quantification by qPCR.

[2] = test system: TrkA-positive PC12 cells; settings: bacterially-expressed truncated PDNF; cited from earlier work

Molecule | effect on sPDNF stimulation of FKN transcripts [1] | effect on sPDNF stimulation of MCP-1 transcripts [1] | survival and differentiation of TrkA-positive PC12 cells [2]
COC(=O)[C@@]1(O)C[C@H]2O[C@]1(C)n1c3ccccc3c3c4c(c5c6ccccc6n2c5c31)C(=O)NC4 [K252a] | completely abrogated | completely abrogated | 
truncated PDNF corresponding to amino acids 1-445 of SEQ ID NO:2: bacterially-expressed truncated PDNF, amino acids 1-445 of SEQ ID NO:2 (protein, listed as Trypanosoma cruzi) MGKTVVVASRMFWLMFFVPLLLAICPSEPAYALAPGSSRVELFKRKNSTVPFEDKAGKVTERVVHSFRLPALVNVDGVMVAIADARYDTSNDNSLIDTVAKYSVDDGETWETQIAIKNSRVSSVSRVVDPTVIVKGNKLYVLVGSYYSSRSYWSSHGDARDWDILLAVGEVTKSTAGGKITASIKWGSPVSLKKFFPAEMEGMHTNQFLGGAGVAIVASNGNLVYPVQVTNKKKQVFSKIFYSEDDGKTWKFGKGRSDFGCSEPVALEWEGKLIINTRVDWKRRLVYESSDMEKPWVEAVGTVSRVWGPSPKSNQPGSQSSFTAVTIEGMRVMLFTHPLNFKGRWLRDRLNLWLTDNQRIYNVGQVSIGDENSAYSSVLYKDDKLYCLHEINTDEVYSLVFARLVGELRIIKSVLRSWKNWDSHLSSICTPADPAASSSESGCGP |  |  | promoted survival and differentiation
truncated PDNF equivalent to amino acids 1-425 of SEQ ID NO:2: truncated PDNF, amino acids 1-425 of SEQ ID NO:2 (protein, listed as Trypanosoma cruzi) MGKTVVVASRMFWLMFFVPLLLAICPSEPAYALAPGSSRVELFKRKNSTVPFEDKAGKVTERVVHSFRLPALVNVDGVMVAIADARYDTSNDNSLIDTVAKYSVDDGETWETQIAIKNSRVSSVSRVVDPTVIVKGNKLYVLVGSYYSSRSYWSSHGDARDWDILLAVGEVTKSTAGGKITASIKWGSPVSLKKFFPAEMEGMHTNQFLGGAGVAIVASNGNLVYPVQVTNKKKQVFSKIFYSEDDGKTWKFGKGRSDFGCSEPVALEWEGKLIINTRVDWKRRLVYESSDMEKPWVEAVGTVSRVWGPSPKSNQPGSQSSFTAVTIEGMRVMLFTHPLNFKGRWLRDRLNLWLTDNQRIYNVGQVSIGDENSAYSSVLYKDDKLYCLHEINTDEVYSLVFARLVGELRIIKSVLRSWKNWDSHL |  |  | did not
